Assay results as given in ChEMBL document CHEMBL1123047, “Quantitative evaluation of the beta 2-adrenoceptor affinity of phenoxypropanolamines and phenylethanolamines” (J Med Chem, 1985).

How the values were obtained:
[1] = molecular target: Beta-2 adrenergic receptor (Bos taurus, UniProt Q28044); settings: read-out: Kd app
Description: (§2) Affinity for cow beta-2 adrenergic receptor by measuring displacement (-)-[3H]dihydroalprenolol (DHA)

[2] = molecular target: Beta-2 adrenergic receptor (Bos taurus) (UniProt Q28044)
Description: as §2

[3] = (§1) Partition coefficient (logP); settings: octanol/water
[4] = as §1; type: physicochemical; settings: octanol/water

Beta-2 adrenergic receptor (Bos taurus), sequence (Q28044 whole entry, looked up): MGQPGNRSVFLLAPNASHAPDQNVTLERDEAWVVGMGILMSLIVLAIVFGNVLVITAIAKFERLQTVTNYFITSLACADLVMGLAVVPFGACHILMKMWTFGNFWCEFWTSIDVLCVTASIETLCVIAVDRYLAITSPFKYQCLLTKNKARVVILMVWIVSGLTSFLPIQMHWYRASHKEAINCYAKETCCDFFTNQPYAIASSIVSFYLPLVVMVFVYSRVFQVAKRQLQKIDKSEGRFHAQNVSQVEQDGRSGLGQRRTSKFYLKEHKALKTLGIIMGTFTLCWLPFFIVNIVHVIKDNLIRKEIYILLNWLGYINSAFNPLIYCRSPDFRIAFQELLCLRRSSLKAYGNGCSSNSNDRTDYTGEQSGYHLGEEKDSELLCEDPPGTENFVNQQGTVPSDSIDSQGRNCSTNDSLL
Beta-2 adrenergic receptor, sequence (Q28044 whole entry): as the sequence (Q28044 whole entry, looked up) above

SMILES | Kd [1] | -Log KD [2] | logP [3] | logP [4]
CC(C)NCC(O)c1ccc([N+](=O)[O-])cc1 (centres undefined) [NIFENALOL] | 1320 nM |  |  | 
CC(C)NCC(O)COc1ccccc1C#N (centres undefined) | 21.9 nM | 7.96 |  | 
CC(C)(C)NCC(O)c1ccc(O)cc1 (centres undefined) | 1260 nM | 6.2 |  | 
Cc1cccc(OCC(O)CNC(C)C)c1 (centres undefined) [TOLIPROLOL] | 43.6 nM | 7.66 |  | 
OCc1ccccc1O [SALICYL ALCOHOL] |  |  | 0.73 | 
CC(C)NCC(O)c1ccc(O)c(N)c1 (centres undefined) | 5130 nM | 5.59 |  | 
CC(C)NCC(O)COc1ccccc1CO (centres undefined) | 50.1 nM | 7.6 |  | 
CC(C)NCC(O)c1cccc(O)c1 (centres undefined) [METATEROL] | 910 nM | 6.34 |  | 
Cc1cc(C)cc(OCC(O)CNC(C)C)c1 (centres undefined) | 10.2 nM | 8.29 |  | 
CC(C)(C)NCC(O)c1ccc(O)c(O)c1 (centres undefined) [COLTEROL] | 600 nM | 6.55 |  | 
CC(C)(C)NCC(O)c1cc(O)cc(O)c1 (centres undefined) |  | 5.73 |  | 
CC(C)NCC(O)c1ccc2ccccc2c1 (centres undefined) [PRONETALOL] | 160 nM | 7.1 |  | 
CC(C)(C)NCC(O)c1ccc(O)c(N)c1 (centres undefined) | 2040 nM | 5.99 |  | 
CC(C)NC[C@H](O)COc1ccc(O)cc1 [PRENALTEROL] | 1070 nM | 6.27 |  | 
CC(C)(C)NCC(O)c1cc(Cl)c(O)c(Cl)c1 (centres undefined) | 1950 nM | 7.41 |  | 
C#CCOc1ccccc1OCC(O)CNC(C)C (centres undefined) | 2.14 nM | 8.97 |  | 
CCCc1ccccc1 |  |  | 3.57 | 

SMILES | Kd [1] | -Log KD [2] | logP [3] | logP [4]
CNc1cc(C(O)CNC(C)(C)C)ccc1O (centres undefined) | 520 nM |  |  | 
Cc1ccccc1OCC(O)CNC(C)C (centres undefined) | 10.2 nM | 8.29 |  | 
CC(C)(C)NCC(O)c1ccc(O)c(C(N)=O)c1 (centres undefined) | 470 nM |  |  | 
CC(C)NCC(O)c1ccc(O)cc1 (centres undefined) [DETERENOL] | 4270 nM |  |  | 
Nc1ccccc1O [QUESTIOMYCIN B] |  |  | 0.52 | 
CC(C)NCC(O)c1ccc(NS(C)(=O)=O)cc1 (centres undefined) |  | 6.57 |  | 
CCCc1ccccc1OCC(O)CNC(C)C (centres undefined) | 0.63 nM | 9.2 |  | 
CC(C)(C)NCC(O)c1ccc(O)c(CO)c1 (centres undefined) |  | 6.58 |  | 
CC(C)NCC(O)COc1ccccc1C1CC1 (centres undefined) [PROCINOLOL] | 0.39 nM | 9.41 |  | 
CC(C)NCC(O)c1cc(O)cc(O)c1 (centres undefined) [METAPROTERENOL] | 9120 nM |  |  | 
Oc1cccc(O)c1 [RESORCINOL] |  |  | 0.8 | 
CC(C)(C)NCC(O)c1ccccc1Cl (centres undefined) [TULOBUTEROL] | 130 nM |  |  | 
CC(C)NCC(O)COc1ccccc1 (centres undefined) | 53.7 nM | 7.57 |  | 
CCC(C)c1cccc(OCC(O)CNC(C)C)c1 (centres undefined) | 17.8 nM | 8.05 |  | 
CC(C)NCC(O)c1ccc(O)c(CO)c1 (centres undefined) | 3160 nM | 5.8 |  | 
CC(C)NCC(O)c1cc(Cl)c(N)c(Cl)c1 (centres undefined) | 58 nM | 7.54 |  | 
NC(=O)c1ccccc1O [SALICYLAMIDE] |  |  |  | 1.28
